Bridge positions count the residues as written; N and C are the ends. Peptide text beside a SMILES is read from it.
Tests used:
SARS−CoV−2 Spike RBD = SARS−CoV−2 Spike RBD (Severe acute respiratory syndrome coronavirus 2, UniProt P0DTC2); test: biochemical; format: binding; details: KD; SD
Spike RBD (SARS-CoV-2) = Spike RBD (SARS-CoV-2) (UniProt P0DTC2); details: cited from earlier work
RBD = details: binding to RBD; cited from earlier work

`CC[C@H](C)[C@@H]1NC(=O)[C@H](CO)NC(=O)[C@H](CC(C)C)NC(=O)[C@@H]2CSSC[C@@H](C(=O)NCC(=O)N[C@@H](CCCCN)C(=O)N[C@@H](CCC(N)=O)C(=O)O)NC(=O)[C@H]([C@@H](C)O)NC(=O)[C@@H]3CSSC[C@H](NC(=O)[C@H](CCC(=O)O)NC(=O)[C@H](CC(N)=O)NC(=O)[C@H](CCCCN)NC(=O)[C@H](CC(N)=O)NC(=O)[C@H](Cc4ccccc4)NC(=O)[C@@H]4CCCN4C(=O)[C@@H](NC(=O)CNC(=O)[C@H](Cc4ccccc4)NC(=O)CN)CSSC[C@H](NC(=O)[C@H](Cc4ccccc4)NC(=O)CNC(=O)[C@H](Cc4ccccc4)NC(=O)[C@H](CCCCN)NC(=O)[C@H](CCCNC(=N)N)NC(=O)CNC1=O)C(=O)N[C@@H](C)C(=O)NCC(=O)N1CCC[C@H]1C(=O)N[C@@H](CC(C)C)C(=O)N[C@@H](CCCNC(=N)N)C(=O)N[C@@H](C)C(=O)N[C@@H]([C@@H](C)O)C(=O)N3)C(=O)N[C@@H](Cc1c[nH]cn1)C(=O)N[C@@H](C)C(=O)N[C@@H](Cc1c[nH]cn1)C(=O)N2` [rE8K] (H-GFGCPFNKNECHAHCLSIGRKFGFCAGPLRATCTCGKQ-OH; disulfide 4-25, 11-33, 15-35) gave a Kd (SARS−CoV−2 Spike RBD) of 1900 ± 570 nM.
In the case of “human beta-defensin 2 (from UniProt O15263)”, the Kd (Spike RBD (SARS-CoV-2)) is listed as 300 nM.
In the case of human β−defensin 2 [hBD−2], the Kd (RBD) is given as about 300 nM.

Reference: article PMC8304516, “A Fungal Defensin Targets the SARS−CoV−2 Spike Receptor−Binding Domain” (Journal of Fungi, 2021)
